# Source: EP4122499A1, “FIBROBLAST ACTIVATION PROTEIN INHIBITORS AND USE THEREOF” (3B Pharmaceuticals GmbH, priority 2021, dated 2023)
# Biological target: T1, Human recombinant FAP (Homo sapiens, UniProt Q12884)
# T1 sequence (Q12884 1-760): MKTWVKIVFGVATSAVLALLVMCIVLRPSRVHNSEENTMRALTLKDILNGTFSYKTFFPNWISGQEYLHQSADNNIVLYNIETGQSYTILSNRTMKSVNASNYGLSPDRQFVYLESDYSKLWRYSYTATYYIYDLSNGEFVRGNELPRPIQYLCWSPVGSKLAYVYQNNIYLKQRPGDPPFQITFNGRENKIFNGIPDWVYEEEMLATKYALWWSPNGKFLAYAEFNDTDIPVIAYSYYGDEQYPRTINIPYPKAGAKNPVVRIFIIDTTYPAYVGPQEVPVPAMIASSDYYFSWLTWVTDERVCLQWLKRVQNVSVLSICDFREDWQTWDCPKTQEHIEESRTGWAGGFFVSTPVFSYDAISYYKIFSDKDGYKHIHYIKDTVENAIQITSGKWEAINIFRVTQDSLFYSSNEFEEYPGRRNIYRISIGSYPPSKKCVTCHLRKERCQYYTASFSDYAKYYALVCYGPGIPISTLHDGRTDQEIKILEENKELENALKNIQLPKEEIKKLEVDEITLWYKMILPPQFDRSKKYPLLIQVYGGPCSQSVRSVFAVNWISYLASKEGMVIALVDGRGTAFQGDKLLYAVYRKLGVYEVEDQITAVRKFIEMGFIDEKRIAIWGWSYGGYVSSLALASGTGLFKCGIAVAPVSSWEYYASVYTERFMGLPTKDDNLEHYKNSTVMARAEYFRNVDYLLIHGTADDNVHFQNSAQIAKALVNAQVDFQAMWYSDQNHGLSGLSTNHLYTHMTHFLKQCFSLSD
# Test: Surface plasmon resonance assay (Biacore T200, single cycle kinetics)
# Assay type: binding
# Conditions: SPR, 25°C; for pKD (Biacore) / Kd: 1:1 Langmuir binding model; for HL [min] (Biacore): half-life; for Kd: read-out: pKD (Biacore) (converted)
# Summary of the method: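 Human recombinant FAP (20 µg/mL) was captured on anti-FAP antibody immobilized on a CM5 chip, and compounds were run in single-cycle kinetics at 25 °C in HBST with 0.1% DMSO, starting from 500 nM. Sensorgrams were corrected against a reference flow cell and for baseline drift. kon, koff, KD and t1/2 came from a 1:1 Langmuir fit, with pKD = −log KD.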
Structure (SMILES),pKD (Biacore),HL [min] (Biacore),Kd [nM]
O=C(O)CN1CCN(CC(=O)O)CCN(CC(=O)N2CCN(CCCOc3ccc4nccc(C(=O)NCC(=O)N5C[C@@H](F)C[C@H]5C(=O)c5nc6ccccc6o5)c4c3)CC2)CCN(CC(=O)O)CC1 [drawing 358],>11,>500,–
O=C(NCC(=O)N1CCC[C@H]1C(=O)c1nc2ccccc2s1)c1ccnc2ccccc12,–,0.3,3.98
CS(=O)(=O)c1cccc(-c2ccc3c(C(=O)NCC(=O)N4CC(F)(F)C[C@H]4C#N)ccnc3c2)c1 [drawing 289],–,29.5,0.0794
O=C(O)CN1CCN(CC(=O)O)CCN(CC(=O)N2CCN(CCCOc3ccc4nccc(C(=O)NCC(=O)N5CC(F)(F)C[C@H]5C(=O)c5nc6ccccc6o5)c4c3)CC2)CCN(CC(=O)O)CC1,8.6,57,–
N#C[C@@H]1CC(F)(F)CN1C(=O)CNC(=O)c1ccnc2ccc(-c3ccc(S(=O)(=O)CCCNC(=O)CN4CCN(CC(=O)O)CCN(CC(=O)O)CCN(CC(=O)O)CC4)cc3)cc12,>11,>500,–
O=C(NCC(=O)N1CCC[C@H]1C(=O)c1ncco1)c1ccnc2ccccc12 [drawing 297],–,0.6,2.51
CS(=O)(=O)c1ccc(-c2ccc3c(C(=O)NCC(=O)N4CCC[C@H]4C#N)ccnc3c2)cc1 [drawing 290],–,4,0.631
O=C(O)CN1CCN(CC(=O)O)CCN(CC(=O)NCCCNC(=O)c2ccc(-c3ccc4nccc(C(=O)NCC(=O)N5CCC[C@H]5B(O)O)c4c3)cc2)CCN(CC(=O)O)CC1,>11,>500,–
N#C[C@@H]1CC(F)(F)CN1C(=O)CNC(=O)c1ccnc2ccc(-c3ccc(C(=O)NCCCNC(=O)CN4CCN(CC(=O)O)CCN(CC(=O)O)CCN(CC(=O)O)CC4)cc3)cc12,>11,110,–
N#C[C@@H]1CCCN1C(=O)CNC(=O)c1ccnc2ccc(-c3ccc(C(=O)NCCCNC(=O)CN4CCN(CC(=O)O)CCN(CC(=O)O)CCN(CC(=O)O)CC4)cc3)cc12,10.2,160,–
N#C[C@@H]1CC(F)(F)CN1C(=O)CNC(=O)c1ccnc2ccc(-c3ccc(C(=O)NCCN4CCN(C(=O)CN5CCN(CC(=O)O)CCN(CC(=O)O)CCN(CC(=O)O)CC5)CC4)cc3)cc12,>11,>500,–
CS(=O)(=O)c1cccc(-c2ccc3nccc(C(=O)NCC(=O)N4CC(F)(F)C[C@H]4C#N)c3c2)c1 [drawing 288],–,29,0.0794
O=C(O)CN1CCN(CC(=O)O)CCN(CC(=O)N2CCN(CCNC(=O)c3cccc(-c4ccc5nccc(C(=O)NCC(=O)N6CCC[C@H]6C(=O)c6nc7ccccc7o6)c5c4)c3)CC2)CCN(CC(=O)O)CC1 [drawing 353],10.1,289.5,–
O=C(O)CN1CCN(CC(=O)O)CCN(CC(=O)N2CCN(CCNC(=O)c3ccc(-c4ccc5c(C(=O)NCC(=O)N6CCC[C@H]6C(=O)c6nc7ccccc7o6)ccnc5c4)cc3)CC2)CCN(CC(=O)O)CC1 [drawing 355],>11,>500,–
CS(=O)(=O)c1ccc(-c2ccc3nccc(C(=O)NCC(=O)N4CCC[C@H]4C#N)c3c2)cc1,–,12,0.158
N#C[C@@H]1CC(F)(F)CN1C(=O)CNC(=O)c1ccnc2ccc(-c3ccc(C(=O)NCCCNC(=O)CN4CCN(CC(=O)O)CCN(CC(=O)O)CCN(CC(=O)O)CC4)nc3)cc12,>11,>500,–
CS(=O)(=O)c1cccc(-c2ccc3c(C(=O)NCC(=O)N4CCC[C@H]4C#N)ccnc3c2)c1,–,5.7,0.501

# Further lines, results first:
pKD (Biacore),HL [min] (Biacore),Kd [nM],Structure (SMILES)
9,4.8,–,O=C(O)CN1CCN(CC(=O)O)CCN(CC(=O)N2CCN(CCNC(=O)c3ccc(-c4ccc5nccc(C(=O)NCC(=O)N6C[C@@H](F)C[C@H]6C(=O)c6nc7ccccc7o6)c5c4)cc3)CC2)CCN(CC(=O)O)CC1 [drawing 360]
>11,>500,–,O=C(O)CN1CCN(CC(=O)O)CCN(CC(=O)N2CCN(CCCOc3ccc4nccc(C(=O)NCC(=O)N5CCC[C@H]5C(=O)c5nc6ccccc6o5)c4c3)CC2)CCN(CC(=O)O)CC1 [drawing 357]
–,2.5,0.398,CS(=O)(=O)c1cccc(-c2ccc3nccc(C(=O)NCC(=O)N4CCC[C@H]4C#N)c3c2)c1
8.7,4.1,–,O=C(O)CN1CCN(CC(=O)O)CCN(CC(=O)N2CCN(CCNC(=O)c3ccc(-c4ccc5nccc(C(=O)NCC(=O)N6CCC[C@H]6C(=O)c6nc7ccccc7o6)c5c4)cn3)CC2)CCN(CC(=O)O)CC1 [drawing 361]
>11,>500,–,O=C(O)CN1CCN(CC(=O)O)CCN(CC(=O)N2CCN(CCNC(=O)c3cccc(-c4ccc5c(C(=O)NCC(=O)N6CCC[C@H]6C(=O)c6nc7ccccc7o6)ccnc5c4)c3)CC2)CCN(CC(=O)O)CC1 [drawing 352]
–,0.3,12.6,O=C(NCC(=O)N1CCC[C@H]1C(=O)c1nccs1)c1ccnc2ccccc12
9.8,19,–,N#C[C@@H]1CC(F)(F)CN1C(=O)CNC(=O)c1cc[n+]([O-])c2ccc(OCCCN3CCN(C(=O)CN4CCN(CC(=O)O)CCN(CC(=O)O)CCN(CC(=O)O)CC4)CC3)cc12
–,125,0.0251,CS(=O)(=O)c1ccc(-c2ccc3nccc(C(=O)NCC(=O)N4CC(F)(F)C[C@H]4C#N)c3c2)cc1
9.1,10.5,–,O=C(O)CN1CCN(CC(=O)O)CCN(CC(=O)N2CCN(CCNC(=O)c3ccc(-c4ccc5nccc(C(=O)NCC(=O)N6CCC[C@H]6C(=O)c6nc7ccccc7o6)c5c4)cc3)CC2)CCN(CC(=O)O)CC1 [drawing 354]
–,0.4,2.51,CC(C)(C)c1nnc(C(=O)[C@@H]2CCCN2C(=O)CNC(=O)c2ccnc3ccccc23)o1
10.3,259.3,–,O=C(O)CN1CCN(CC(=O)O)CCN(CC(=O)NCCCNC(=O)c2ccc(-c3ccc4nccc(C(=O)NCC(=O)N5CCC[C@H]5C(=O)c5nc6ccccc6o5)c4c3)cc2)CCN(CC(=O)O)CC1
–,3.7,0.501,O=C(NCC(=O)N1CCC[C@H]1C(=O)c1nc2ccccc2o1)c1ccnc2ccccc12
